Test results from patent US12497365B2, “4-pyridinyl formamide compound or derivative thereof, preparation method therefor, herbicidal composition and use thereof” (Qingdao Kingagroot Chemical Compound Co., Ltd., priority 2019, dated 2025).

Assays:
Experiment in all cases: Weeding effect in post-emergence stage
Assay type in all cases: in vivo
Conditions in all cases: active ingredient 2000 g/ha, 3 weeks after application, fresh weight control rate
Abutilon theophrasti = test system: Abutilon theophrasti
In short: (§1)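 Control of growth was scored on fresh weight 3 weeks after a post-emergence spray-tower application. Rates were 2000, 1000, 500, 250 or 125 g/ha, formulated in acetone/Tween 80 plus methyl oleate concentrate (1.5 L/ha), and applied to potted plants at the 2-3 leaf stage.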

[1] = test system: Amaranthus retroflexus L.
In short: as §1

Chenopodium album = test system: Chenopodium album
In short: as §1

Descurainia sophia = test system: Descurainia sophia
In short: as §1

| SMILES | Weeding effect, activity level (growth control rate), Abutilon theophrasti (Abutilon theophrasti) | Weeding effect, activity level (growth control rate), Amaranthus retroflexus L. [1] | Weeding effect, activity level (growth control rate), Chenopodium album (Chenopodium album) | Weeding effect, activity level (growth control rate), Descurainia sophia (Descurainia sophia) |
| --- | --- | --- | --- | --- |
| Cn1nnnc1NC(=O)c1ccnc(-c2cc(Br)ccc2Br)c1Cl [Compound 1-96] | 5 (Level 5: growth control rate is above 85%) | 5 (Level 5: growth control rate is above 85%) | 5 (Level 5: growth control rate is above 85%) | 5 (Level 5: growth control rate is above 85%) |
| Cn1nnnc1NC(=O)c1ccnc(-c2cccc(Br)c2F)c1Cl [Compound 1-97] | 5 (Level 5: growth control rate is above 85%) | 5 (Level 5: growth control rate is above 85%) | 5 (Level 5: growth control rate is above 85%) | 5 (Level 5: growth control rate is above 85%) |
| COC(=O)c1cc(-c2nccc(C(=O)Nc3nnnn3C)c2Cl)ccc1Cl [Compound 1-98] | 5 (Level 5: growth control rate is above 85%) | 5 (Level 5: growth control rate is above 85%) | 5 (Level 5: growth control rate is above 85%) | 5 (Level 5: growth control rate is above 85%) |
| COc1ccc(-c2nccc(C(=O)Nc3nnnn3C)c2Cl)cc1C=O [Compound 1-99] | 5 (Level 5: growth control rate is above 85%) | 5 (Level 5: growth control rate is above 85%) | 5 (Level 5: growth control rate is above 85%) | 5 (Level 5: growth control rate is above 85%) |
| Cn1nnnc1NC(=O)c1ccnc(-c2cc(C(=O)O)cc([N+](=O)[O-])c2)c1Cl [Compound 1-100] | 5 (Level 5: growth control rate is above 85%) | 5 (Level 5: growth control rate is above 85%) | 5 (Level 5: growth control rate is above 85%) | 5 (Level 5: growth control rate is above 85%) |
| Cn1nnnc1NC(=O)c1ccnc(-c2ccc(Cl)cc2C(F)(F)F)c1Cl [Compound 1-101] | 5 (Level 5: growth control rate is above 85%) | 5 (Level 5: growth control rate is above 85%) | 5 (Level 5: growth control rate is above 85%) | 5 (Level 5: growth control rate is above 85%) |
| COc1ccc(-c2nccc(C(=O)Nc3nnnn3C)c2Cl)c(Cl)c1 [Compound 1-102] | 5 (Level 5: growth control rate is above 85%) | 5 (Level 5: growth control rate is above 85%) | 5 (Level 5: growth control rate is above 85%) | 5 (Level 5: growth control rate is above 85%) |
| COc1ccc(Cl)c(-c2nccc(C(=O)Nc3nnnn3C)c2Cl)c1 [Compound 1-103] | 5 (Level 5: growth control rate is above 85%) | 5 (Level 5: growth control rate is above 85%) | 5 (Level 5: growth control rate is above 85%) | 5 (Level 5: growth control rate is above 85%) |
| COc1ccc(-c2nccc(C(=O)Nc3nnnn3C)c2Cl)c(C)c1 [Compound 1-104] | 5 (Level 5: growth control rate is above 85%) | 5 (Level 5: growth control rate is above 85%) | 5 (Level 5: growth control rate is above 85%) | 5 (Level 5: growth control rate is above 85%) |
| COc1ccc(-c2nccc(C(=O)Nc3nnnn3C)c2Cl)c(OC)c1 [Compound 1-105] | 5 (Level 5: growth control rate is above 85%) | 5 (Level 5: growth control rate is above 85%) | 5 (Level 5: growth control rate is above 85%) | 5 (Level 5: growth control rate is above 85%) |
| Cn1nnnc1NC(=O)c1ccnc(-c2ccc(OCc3ccccc3)cc2F)c1Cl [Compound 1-106] | 5 (Level 5: growth control rate is above 85%) | 5 (Level 5: growth control rate is above 85%) | 5 (Level 5: growth control rate is above 85%) | 5 (Level 5: growth control rate is above 85%) |
| Cn1nnnc1NC(=O)c1ccnc(-c2ccc(Oc3ccccc3)c(Cl)c2)c1Cl [Compound 1-107] | 5 (Level 5: growth control rate is above 85%) | 5 (Level 5: growth control rate is above 85%) | 5 (Level 5: growth control rate is above 85%) | 5 (Level 5: growth control rate is above 85%) |
| Cn1nnnc1NC(=O)c1ccnc(-c2cc(-c3ccccc3)cc(-c3ccccc3)c2)c1Cl [Compound 1-108] | 5 (Level 5: growth control rate is above 85%) | 5 (Level 5: growth control rate is above 85%) | 5 (Level 5: growth control rate is above 85%) | 5 (Level 5: growth control rate is above 85%) |
| Cn1nnnc1NC(=O)c1ccnc(-c2cc(F)c(F)c(F)c2)c1Cl [Compound 1-109] | 5 (Level 5: growth control rate is above 85%) | 5 (Level 5: growth control rate is above 85%) | 5 (Level 5: growth control rate is above 85%) | 5 (Level 5: growth control rate is above 85%) |
| COc1c(Cl)ccc(-c2nccc(C(=O)Nc3nnnn3C)c2Cl)c1F [Compound 1-110] | 5 (Level 5: growth control rate is above 85%) | 5 (Level 5: growth control rate is above 85%) | 5 (Level 5: growth control rate is above 85%) | 5 (Level 5: growth control rate is above 85%) |
| Cn1nnnc1NC(=O)c1ccnc(-c2cccc3ccccc23)c1Cl [Compound 1-111] | 5 (Level 5: growth control rate is above 85%) | 5 (Level 5: growth control rate is above 85%) | 5 (Level 5: growth control rate is above 85%) | 5 (Level 5: growth control rate is above 85%) |
| Cn1nnnc1NC(=O)c1ccnc(-c2ccc3ccccc3c2)c1Cl [Compound 1-112] | 5 (Level 5: growth control rate is above 85%) | 5 (Level 5: growth control rate is above 85%) | 5 (Level 5: growth control rate is above 85%) | 5 (Level 5: growth control rate is above 85%) |
| Cn1nnnc1NC(=O)c1ccnc(-c2ccc(F)c3ccccc23)c1Cl [Compound 1-113] | 5 (Level 5: growth control rate is above 85%) | 5 (Level 5: growth control rate is above 85%) | 5 (Level 5: growth control rate is above 85%) | 5 (Level 5: growth control rate is above 85%) |
| Cn1nnnc1NC(=O)c1ccnc(-c2cccc3cnccc23)c1Cl [Compound 1-114] | 5 (Level 5: growth control rate is above 85%) | 5 (Level 5: growth control rate is above 85%) | 5 (Level 5: growth control rate is above 85%) | 5 (Level 5: growth control rate is above 85%) |
